How the values were obtained:
Erk1/2 phosphorylation = assay: Erk1/2 Phosphorylation Assay (western blot), Panc-1; type: cell-based, human; conditions: at 10 μM, * = activation
Method in brief: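 KRas G12D Panc-1 cells were treated 6 h at 37° C with compound at 10 μM or serial dilutions for IC50 (0.3% DMSO). In method 1, cells were serum-starved overnight (0.5% FBS) and then given 1.5 ng/ml EGF for 15 min. In method 2, cells stayed in 10% FBS without stimulation. Lysate phospho-Erk1/2 (Thr202/Tyr204) was read by western blot.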

IL6 = assay: IL-6 Quantification Assay (ELISA), LPS-stimulated RAW 264.7; type: cell-based; set-up: inhibition: dose or concentration left out as unconfirmed; conditions: Mus musculus, RAW264.7; read-out: IL-6: % inh.
TNF-alpha = TNF-alpha Quantification Assay (ELISA), LPS-stimulated RAW 264.7; type: cell-based; conditions: Mus musculus, RAW264.7; at 10 μM; read-out: TNFα: % inh.
KRas G12D mutant = assay: Ras GTP Binding Domain Inhibition Assay (Ras Superfamily Assay); conditions: for KRas G12D mutant + SOS: % inh.: with SOS; for KRas G12D mutant: % inh.: without SOS
Method in brief: (§1)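 His-tagged GTPases immobilised on nickel-coated plates, pre-incubated with compound (20 μM single point, or serial dilution for IC50) 3 h at room temperature, with or without 10-30 μg/mL Sos (residues 556-1049) in the final hour. Bound Cy3- or Cy5-GTP (100 nM, 45 min) measured by fluorescence after washing.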

KRas wild type = assay: as above; conditions: for KRas wild type + SOS: % inh.: with SOS; for KRas wild type: % inh.: without SOS
Method in brief: as §1

Rac-1 = biological target: T1, Rac-1 (Homo sapiens, UniProt P63000); assay: as above; conditions: read-out: Rac-1: % inh.
T1 construct: made in house
Method in brief: as §1

KRas G12D mutant + SOS: % inh. (KRas G12D mutant; 20 μM compound) | KRas G12D mutant: % inh. (KRas G12D mutant; 20 μM compound) | KRas wild type + SOS: % inh. (KRas wild type; 20 μM compound) | KRas wild type: % inh. (KRas wild type; 20 μM compound) | inhibition at 20 µM (Rac-1) | KRas G12D mutant + SOS: % inh. (KRas G12D mutant; at 20 μM) | KRas G12D mutant: % inh. (KRas G12D mutant; at 20 μM) | KRas wild type + SOS: % inh. (KRas wild type; at 20 μM) | KRas wild type: % inh. (KRas wild type; at 20 μM) | Structure (SMILES) | % inh of Erk1/2 phosphorylation in Panc-1 (Erk1/2 phosphorylation) | inhibition (IL6) | inhibition at 10 µM (TNF-alpha)
D (D = 76-100% inhibition) | D (D = 76-100% inhibition) | D (D = 76-100% inhibition) | D (D = 76-100% inhibition) | 76 to 100% |  |  |  |  | COc1cccnc1Nc1nc(-c2nccn2C)nn2cc(-c3ccn(C(C)C)n3)c(C)c12 [Compound 89, 6-(1-Isopropyl-1H-pyrazol-3-yl)-N-(3-methoxypyridin-2-yl)-5-methyl-2-(1-methyl-1H-imidazol-2-yl)pyrrolo[2,1-f][1,2,4]triazin-4-amine] | D* (85-100% activation) | 75 to 100% | 25 to 49%
0 (0 = 0% inhibition) | 0 (0 = 0% inhibition) | 0 (0 = 0% inhibition) | 0 (0 = 0% inhibition) | 1 to 25% |  |  |  |  | COC[C@@H]1CC[C@@H]1CNc1nc(-c2nccn2C)nn2cc(-c3ccn(C(C)C)n3)c(C)c12 (racemic) [Compound 3, rac 6-(1-Isopropyl-1H-pyrazol-3-yl)-N-(((1S,2R)-2-(methoxymethyl)cyclobutyl)methyl)-5-methyl-2-(1-methyl-1H-imidazol-2-yl)pyrrolo[2,1-f][1,2,4]triazin-4-amine] | D (85-100% inhibition) | 50 to 74% | 25 to 49%
D (D = 76-100% inhibition) | D (D = 76-100% inhibition) | D (D = 76-100% inhibition) | D (D = 76-100% inhibition) | 76 to 100% |  |  |  |  | Cc1c(-c2ccn(C(C)C)n2)cn2nc(-c3nccn3C)nc(Nc3cn(C(C)C)nn3)c12 [Compound 78, N-(1-Isopropyl-1H-1,2,3-triazol-4-yl)-6-(1-isopropyl-1H-pyrazol-3-yl)-5-methyl-2-(1-methyl-1H-imidazol-2-yl)pyrrolo[2,1-f][1,2,4]triazin-4-amine] | D* (85-100% activation) | 25 to 49% | 25 to 49%
0 (0 = 0% inhibition) | 0 (0 = 0% inhibition) | 0 (0 = 0% inhibition) | 0 (0 = 0% inhibition) | 0% |  |  |  |  | COCC1CCN(c2nc(-c3nccn3C)nn3cc(-c4ccn(C(C)C)n4)c(C)c23)C1 (racemic) [Compound 2, rac 6-(1-Isopropyl-1H-pyrazol-3-yl)-4-(3-(methoxymethyl)pyrrolidin-1-yl)-5-methyl-2-(1-methyl-1H-imidazol-2-yl)pyrrolo[2,1-f][1,2,4]triazine] | B (26-49% inhibition) | 1 to 24% | 25 to 49%
C (C = 50-75% inhibition) | D (D = 76-100% inhibition) | B (B = 26-49% inhibition) | C (C = 50-75% inhibition) | 76 to 100% |  |  |  |  | Cc1c(-c2ccn(C(C)C)n2)cn2nc(-c3nccn3C)nc(Nc3nnc(C4CC4)[nH]3)c12 [Compound 81, N-(5-Cyclopropyl-4H-1,2,4-triazol-3-yl)-6-(1-isopropyl-1H-pyrazol-3-yl)-5-methyl-2-(1-methyl-1H-imidazol-2-yl)pyrrolo[2,1-f][1,2,4]triazin-4-amine] | 0 (0% inhibition) | 75 to 100% | 50 to 74%
 |  |  |  | 26 to 49% | B (B = 26-49% inhibition) | B (B = 26-49% inhibition) | A (A = 1-25% inhibition) | B (B = 26-49% inhibition) | COc1cccc(-c2cn3nc(-c4nccn4C)nc(N[C@@H]4CC[C@H](OC)C4)c3c2-c2ccccc2)c1C (racemic) [Compound 271, rac 6-(3-Methoxy-2-methylphenyl)-N-((1R,3S)-3-methoxycyclopentyl)-2-(1-methyl-1H-imidazol-2-yl)-5-phenylpyrrolo[2,1-f][1,2,4]triazin-4-amine] | D (85-100% inhibition) | 75 to 100% | 75 to 100%
A (A = 1-25% inhibition) | A (A = 1-25% inhibition) | 0 (0 = 0% inhibition) | 0 (0 = 0% inhibition) | 0% |  |  |  |  | COc1cc(Nc2nc(-c3nccn3C)nn3cc(-c4ccn(C(C)C)n4)c(C)c23)ccn1 [Compound 87, 6-(1-Isopropyl-1H-pyrazol-3-yl)-N-(2-methoxypyridin-4-yl)-5-methyl-2-(1-methyl-1H-imidazol-2-yl)pyrrolo[2,1-f][1,2,4]triazin-4-amine] | C* (46-84% activation) | 0% | 0%
0 (0 = 0% inhibition) | A (A = 1-25% inhibition) | A (A = 1-25% inhibition) | A (A = 1-25% inhibition) | 1 to 25% |  |  |  |  | COc1ncc(Nc2nc(-c3nccn3C)nn3cc(-c4ccn(C(C)C)n4)c(C)c23)cn1 [Compound 80, 6-(1-Isopropyl-1H-pyrazol-3-yl)-N-(2-methoxypyrimidin-5-yl)-5-methyl-2-(1-methyl-1H-imidazol-2-yl)pyrrolo[2,1-f][1,2,4]triazin-4-amine] | D* (85-100% activation) | 0% | 0%
0 (0 = 0% inhibition) | 0 (0 = 0% inhibition) | A (A = 1-25% inhibition) | 0 (0 = 0% inhibition) | 26 to 49% |  |  |  |  | COc1cccc(-c2cn3nc(-c4nccn4C)nc(N[C@@H]4CC[C@@H](OC)C4)c3c2-c2ccccc2)c1Cl.Cl (racemic) [Compound 34, rac 6-(2-Chloro-3-methoxyphenyl)-N-((1R,3R)-3-methoxycyclopentyl)-2-(1-methyl-1H-imidazol-2-yl)-5-phenylpyrrolo[2,1-f][1,2,4]triazin-4-amine hydrochloride] | D (85-100% inhibition) | 75 to 100% | 1 to 24%
B (B = 26-49% inhibition) | B (B = 26-49% inhibition) | A (A = 1-25% inhibition) | B (B = 26-49% inhibition) | 26 to 49% |  |  |  |  | COc1cc(Nc2nc(-c3nccn3C)nn3cc(-c4ccn(C(C)C)n4)c(-c4ccccc4)c23)ncn1 [Compound 22, 6-(1-Isopropyl-1H-pyrazol-3-yl)-N-(6-methoxypyrimidin-4-yl)-2-(1-methyl-1H-imidazol-2-yl)-5-phenylpyrrolo[2,1-f][1,2,4]triazin-4-amine] | 0 (0% inhibition) | 75 to 100% | 0%
A (A = 1-25% inhibition) | B (B = 26-49% inhibition) | A (A = 1-25% inhibition) | A (A = 1-25% inhibition) | 0% |  |  |  |  | COCC1CCN(c2nc(-c3nccn3C)nn3cc(-c4ccn(C(C)C)n4)c(-c4ccccc4)c23)C1.Cl (racemic) [Compound 19, rac 6-(1-Isopropyl-1H-pyrazol-3-yl)-4-(3-(methoxymethyl)pyrrolidin-1-yl)-2-(1-methyl-1H-imidazol-2-yl)-5-phenylpyrrolo[2,1-f][1,2,4]triazine hydrochloride salt] | 0 (0% inhibition) | 75 to 100% | 25 to 49%
 |  |  |  | 76 to 100% |  |  |  |  | Cc1c(-c2ccn(C(C)C)n2)cn2nc(-c3nccn3C)nc(Nc3ccn(C4CC4)n3)c12 [Compound 84, N-(1-Cyclopropyl-1H-pyrazol-3-yl)-6-(1-isopropyl-1H-pyrazol-3-yl)-5-methyl-2-(1-methyl-1H-imidazol-2-yl)pyrrolo[2,1-f][1,2,4]triazin-4-amine] | D* (85-100% activation) | 25 to 49% | 0%
 |  |  |  | 26 to 49% |  |  |  |  | COCCNc1nc(-c2nccn2C)nn2cc(-c3ccn(C(C)C)n3)c(C)c12 [Compound 5, 6-(1-Isopropyl-1H-pyrazol-3-yl)-N-(2-methoxyethyl)-5-methyl-2-(1-methyl-1H-imidazol-2-yl)pyrrolo[2,1-f][1,2,4]triazin-4-amine] | 0 (0% inhibition) | 0% | 0%

Reference: patent publication US12459951B2, “Compounds that interact with RAS superfamily proteins for treatment of cancers, inflammatory diseases, rasopathies, and fibrotic disease” (SHY Therapeutics, LLC, priority 2022, dated 2025)
